Reference: patent publication US11446307B2, “Crystalline forms of a deoxycytidine kinase inhibitor and uses thereof” (Trethera Corporation, priority 2020, dated 2022)

Assays:
[1] = system: myelin oligodendrocyte glycoprotein (MOG)-induced experimental autoimmune encephalomyelitis (EAE); test: Variable dose mouse model of MOG-induced experimental autoimmune encephalomyelitis (EAE); format: in vivo; conditions: vehicle BID 18 days, Log-rank p=0.039
Procedure: 60 female C57BL/6 mice were housed for an acclimation period of 1 week. 53 mice were enrolled in the study after randomization with a body weight between 18.3-22.3 g with an average body weight of 19.7 g per group on Study day minus 1.
For induction of MOG-EAE, MOG35-55 peptide was administered in phosphate buffered saline (PBS) and complete Freund's adjuvant (CFA). MOG35-55 peptide in PBS was emulsified in a 1:1 (v:v) mixture with CFA via homogenization in an Omni BeadRuptor Elite using 7 mL tubes pre-filled with 2.8 mm ceramic beads. Briefly, MOG35-55 peptide was brought up to 1 mg/mL in cold PBS, and 1.75 mL aliquoted into each homogenization tube. An equal volume (1.75 mL) CFA was then added for a total volume of 3.5 mL, on ice. Two rounds of homogenization were performed using a speed of 3.5 m/s; 3 cycles of 45 seconds with 30 seconds dwell at 4° C., followed by a third round with 2 cycles of 45 seconds and 30 seconds dwell at 4° C. In between each round, samples were placed on ice for ˜15 minutes. Tubes were spun down at 300 g for 1 minute at 4° C. Mice were anesthetized under isoflurane anesthesia. 100 μL (50 μg MOG35-55) was then injected subcutaneously into the flank of each leg (for a total of two injections and 100 μg MOG35-55). On Study Day 0 and Day 2, pertussis toxin was formulated at a concentration of […] in PBS, and 100 μL (200 ng) injected into each animal by intraperitoneal injection.
Treatment was performed BID starting on Day 1 for groups 2, 3, and 4, and once daily (QD) starting on day 1 for group 5. All experimental groups were n=12. The administration interval was 12 hours and the administration volume was 5 mL/kg.
The Body condition score of all animals was monitored on study Days 0, 7, 10 and then every other day. […]
Disease severity was scored on Day 0, 7 and every 2 days beginning on Day 10 onward for all groups. […]
Disease incidence rate was calculated as percentage of total animals per group starting from day 0 until termination on study day 28. […]

[2] = system: myelin oligodendrocyte glycoprotein (MOG)-induced experimental autoimmune encephalomyelitis (EAE); test: Mouse model of MOG-induced experimental autoimmune encephalomyelitis (EAE), prophylactic and therapeutic dosing; format: in vivo; conditions: 75 mg/kg P.O. BID Days 8-25 (therapeutic)
Procedure: Adult female C57BL/6J mice were randomly allocated to experimental groups and allowed to acclimatize for one week prior to commencing the study. On Day 0 and Day 7, animals were administered an emulsion (200 μL/mouse) of MOG35-55 and complete Freund's adjuvant (CFA). […]. On Day 0 (immediately post-MOG injection) and Day 2, animals were administered with pertussis toxin (PTx, 500 ng/mouse) prepared in phosphate buffered saline (PBS, 100 μL/mouse) by intra-peritoneal injection.
Treatment was performed twice daily (BID) prophylactically starting on Day 1 for groups 1, 2, and 4, and therapeutically starting on day 8 for group 3. All experimental groups were n=12. The administration interval was 12 hours and the administration volume was 5 mL/kg.
Because body weight loss is known to be an important hallmark of EAE occurring in correspondence of the appearance of the first symptoms, animals were weighed daily from the day of immunization (Day 0) until the end of the experiment. The changes in body weight observed over the course of the experiment for the different experimental groups, presented as mean±SEM, are summarized in FIG. 7. […]
From Day 0 until the end of the experiment, animals were scored daily for clinical signs of EAE to include paresis and paralysis affecting the tail and the limbs. […]

[3] = Accelerated stability tests of polymorph Form II (HPLC purity and potency); format: physicochemical
Procedure: High-performance liquid chromatography (HPLC) was performed using the following instrument and/or conditions.

Question: Which results are given for `COc1ccc(-c2nc([C@@H](C)Sc3nc(N)cc(N)n3)c(C)s2)cc1OCCN1CCOCC1` [Compound 1, (R)-2-((1-(2-(4-methoxy-3-(2-morpholinoethoxy)phenyl)-5-methylthiazol-4-yl)ethyl)thio)pyrimidine-4,6-diamine]?
Answer: median time to disease ([1]; 25 mg/kg BID PO): 18 days; median time to disease ([1]; 75 mg/kg BID PO): 19 days; median time to disease ([1]; 100 mg/kg QD PO): 20 days; animals showing no symptoms at all (complete remission) ([2]; after Day 20): ~27%; disease incidence (highest reached) ([2]; on Day 19, vehicle reached 100% on Day 13): ~92%

Question: Which results are given for `COc1ccc(-c2nc([C@@H](C)Sc3nc(N)cc(N)n3)c(C)s2)cc1OCCN1CCOCC1` [polymorph Form II, (R)-2-((1-(2-(4-methoxy-3-(2-morpholinoethoxy)phenyl)-5-methylthiazol-4-yl)ethyl)thio)pyrimidine-4,6-diamine]?
Answer: Potency (%) ([3]; 25° C./60% RH for 1 week): 98.7%; Purity (area %) ([3]; 25° C./60% RH for 1 week): 98.75 area %; Potency (%) ([3]; 40° C./75% RH for 1 week): 98.6%; Purity (area %) ([3]; 40° C./75% RH for 1 week): 98.66 area %; Potency (%) ([3]; 60° C. for 1 week): 98.6%; Purity (area %) ([3]; 60° C. for 1 week): 98.75 area %; Potency (%) ([3]; API standard (no exposure)): 98.6%; Purity (area %) ([3]; API standard (no exposure)): 98.22 area %
